In ChEMBL document CHEMBL4219192, “Structural analysis and antioxidant activity of the glycoside from Imperial Chrysanthemum” (Bioorg Med Chem Lett, 2018):
Calls of active or inactive are those of the source. No cut-off for these calls is given here.

What was measured:
Assay type in all cases: functional
[1] = Antioxidant activity assessed as DPPH radical scavenging activity at 2.5 mg/ml after 30 mins by absorbance method relative to control
[2] = Antioxidant activity assessed as inhibition of superoxide radical generation after 4 mins by pyrogallol autoxidation method
[3] = Antioxidant activity assessed as hydroxyl radical scavenging activity at 2.5 mg/ml preincubated for 20 mins followed by salicylic acid addition measured after 60 mins by fenton reaction method relative to control
[4] = Antioxidant activity assessed as inhibition of superoxide radical generation at 2.5 mg/ml after 4 mins by pyrogallol autoxidation method relative to control
[5] = Antioxidant activity assessed as ABTS radical scavenging activity at 2.5 mg/ml after 6 mins relative to control
[6] = Antioxidant activity assessed as hydroxyl radical scavenging activity preincubated for 20 mins followed by salicylic acid addition measured after 60 mins by fenton reaction method relative to control
[7] = Antioxidant activity assessed as inhibition of superoxide radical generation up to 0.6 mg/ml after 4 mins by pyrogallol autoxidation method relative to control
[8] = Antioxidant activity assessed as DPPH radical scavenging activity up to 0.6 mg/ml after 30 mins by absorbance method relative to control

Row | SMILES | Activity [1] [%] | inhibition [2] | Activity [3] [%] | inhibition [4] [%] | Activity [5] [%] | Activity [6] | inhibition [7] | Activity [8]
1 | OCOC1COC(S)(O[C@@H]2O[C@H](CO)[C@@H](O)[C@H](O)[C@H]2O)C1OCO (stereo not given in full) | 83.9 | Dose-dependent effect | 76.2 | 73.9 | 83.3 | Dose-dependent effect | – | –
2 | O=C1O[C@H]([C@@H](O)CO)C(O)=C1O | – | – | 94.9 | – | 96.8 | – | Active | Active
